Data published in ChEMBL document CHEMBL5338752, “Carbamate JNK3 Inhibitors Show Promise as Effective Treatments for Alzheimer's Disease: In Vivo Studies on Mouse Models” (J Med Chem, 2023).
The source made the active and inactive calls. The calls are words filed in the database; no cut-off is given here.

What was measured:
Mus musculus [1] = assay: Anti-alzheimer activity against APP/PS1 dE9 double transgenic mouse model assessed as time spent in platform quadrant at 30 mg/kg, po administered daily for 2 months and measured after 74 days by Morris water maze test (reference value: 14.40+/-1.60 %); format: functional; settings: time 74 day
Mus musculus [2] = assay: Anti-alzheimer activity against APP/PS1 dE9 double transgenic mouse model assessed as spontaneous alteration at 30 mg/kg, po administered daily for 2 months and measured after 57 days by Y-maze test (reference value: 45.69+/-2.33%); format: functional; settings: time 57 day
[3] = Tmax in sixteen hrs fasted Sprague-Dawley rat at 3 mg/kg, po measured upto 24 hrs by LC-MS/MS analysis; format: ADME, organism-based; settings: in vivo
Mus musculus [4] = assay: Anti-alzheimer activity against APP/PS1 dE9 double transgenic mouse model assessed as escape latency time at 60 mg/kg, po administered daily for 2 months and measured after 60 days by Passive avoidance test (reference value: 55.3+/-8.2 sec); format: functional; settings: time 60 day
Mus musculus [5] = assay: Anti-alzheimer activity against APP/PS1 dE9 double transgenic mouse model assessed as time spent in platform quadrant at 60 mg/kg, po administered daily for 2 months and measured after 74 days by Morris water maze test (reference value: 14.40+/-1.60 %); format: functional; settings: time 74 day
Mus musculus [6] = assay: Anti-alzheimer activity against APP/PS1 dE9 double transgenic mouse model assessed as time spent in target zone at 30 mg/kg, po administered daily for 2 months and measured after 74 days by Morris water maze test (reference value: 10.56+/-1.59 %); format: functional; settings: time 74 day
[7] = Half life in sixteen hrs fasted Sprague-Dawley rat at 3 mg/kg, po measured upto 24 hrs by LC-MS/MS analysis; format: ADME, organism-based; settings: in vivo
[8] = Apparent permeability of the compound across apical side to basolateral side in human Caco-2 cells; format: ADME, cell-based
[9] = AUC in sixteen hrs fasted Sprague-Dawley rat at 3 mg/kg, po measured upto 24 hrs by LC-MS/MS analysis; format: ADME, organism-based; set-up: time < 24 hrs, dose 3 mg/kg, route po; settings: in vivo
[10] = biological target: Mitogen-activated protein kinase 10 (Homo sapiens, UniProt P53779); assay: Inhibition of JNK3 (unknown origin) using ATF2 as substrate incubated for 40 mins in presence of [gamma33P]ATP by scintillation counting analysis
[11] = biological target: Mitogen-activated protein kinase 8 (Homo sapiens, UniProt P45983); assay: Inhibition of JNK1 (unknown origin) using ATF2 as substrate incubated for 40 mins in presence of [gamma33P]ATP by scintillation counting analysis
Neuron [12] = assay: Neuroprotective activity against rat neuron cells assessed as inhibition of Abeta(1-42)-induced cytotoxicity by measuring increase in cell viability at 20 uM incubated for 48 hrs by MTT assay relative to control; format: functional
[13] = Efflux ratio of apparent permeability across basolateral to apical side to apical to basolateral side in human Caco-2 cells; format: ADME, cell-based
Mus musculus [14] = assay: Anti-alzheimer activity against APP/PS1 dE9 double transgenic mouse model assessed as time spent in target zone at 60 mg/kg, po administered daily for 2 months and measured after 74 days by Morris water maze test (reference value: 10.56+/-1.59 %); format: functional; settings: time 74 day
Mus musculus [15] = assay: Anti-alzheimer activity against APP/PS1 dE9 double transgenic mouse model assessed as spontaneous alteration at 60 mg/kg, po administered daily for 2 months and measured after 57 days by Y-maze test (reference value: 45.69+/-2.33%); format: functional; settings: time 57 day
[16] = AUClast in sixteen hrs fasted Sprague-Dawley rat at 3 mg/kg, po measured upto 24 hrs by LC-MS/MS analysis; format: ADME, organism-based; set-up: dose 3 mg/kg, time < 24 hrs, route po; settings: in vivo
[17] = Cmax in sixteen hrs fasted Sprague-Dawley rat at 3 mg/kg, po measured upto 24 hrs by LC-MS/MS analysis; format: ADME, organism-based; set-up: time < 24 hrs, dose 3 mg/kg, route po; settings: in vivo
Mus musculus [18] = assay: Anti-alzheimer activity against APP/PS1 dE9 double transgenic mouse model assessed as escape latency time at 30 mg/kg, po administered daily for 2 months and measured after 60 days by Passive avoidance test (reference value: 55.3+/-8.2 sec); format: functional; settings: time 60 day
[19] = Apparent permeability of the compound across basolateral side to apical side in human Caco-2 cells; format: ADME, cell-based
Neuron [20] = assay: Neuroprotective activity against rat neuron cells assessed as inhibition of Abeta(1-42)-induced cytotoxicity by measuring increase in cell viability at 20 uM incubated for 24 hrs by MTT assay relative to control; format: functional
[21] = biological target: Mitogen-activated protein kinase 9 (Homo sapiens, UniProt P45984); assay: Inhibition of JNK2 (unknown origin) using ATF2 as substrate incubated for 40 mins in presence of [gamma33P]ATP by scintillation counting analysis
[22] = Effective permeability of compound by […] method; format: ADME; settings: read-out: Peff
[23] = biological target: Mitogen-activated protein kinase 10 (Rattus norvegicus) (UniProt P49187); assay: Inhibition of anisomycin induced JNK3 activation in rat cortex neuron cells assessed as inhibition of APP phosphorylation at 10 to 20 uM preincubated for 90 mins followed by anisomycin addition and measured after 40 mins by Western blot analysis; format: cell-based; settings: dose 10-20 µM
Neuron [24] = assay: Inhibition of apoptosis in rat cortex neuron cells assessed as prevention of A-beta (1 to 42) induced cleaved PARP formation at 10 to 20 uM measured after 24 hrs by Western blot analysis; format: functional, cell-based; settings: dose 10-20 µM
Neuron [25] = assay: Inhibition of apoptosis in rat cortex neuron cells assessed as prevention of A-beta (1 to 42) induced cleaved caspase-3 formation at 10 to 20 uM measured after 24 hrs by Western blot analysis; format: functional, cell-based; settings: dose 10-20 µM
[26] = biological target: Mitogen-activated protein kinase 10 (Rattus norvegicus) (UniProt P49187); assay: Inhibition of anisomycin induced JNK3 activation in rat cortex neuron cells assessed as reduction in Jun phosphorylation levels at 10 to 20 uM preincubated for 90 mins followed by anisomycin addition and measured after 40 mins by Western blot analysis; format: cell-based; settings: dose 10-20 µM, time 130.0 min
[27] = biological target: Mitogen-activated protein kinase 10 (Rattus norvegicus) (UniProt P49187); assay: Inhibition of A-beta (1 to 42) induced JNK3 activation in rat cortex neuron cells assessed as reduction in c-Jun phosphorylation levels at 10 to 20 uM incubated for 24 hrs in presence of A-beta (1 to 42) by Western blot analysis; format: cell-based; settings: dose 10-20 µM
[28] = Cmax in sixteen hrs fasted Sprague-Dawley rat at 1 mg/kg, iv measured upto 24 hrs by LC-MS/MS analysis; format: ADME, organism-based; set-up: dose 1 mg/kg, time < 24 hrs, route iv; settings: in vivo
[29] = AUC in sixteen hrs fasted Sprague-Dawley rat at 1 mg/kg, iv measured upto 24 hrs by LC-MS/MS analysis; format: ADME, organism-based; set-up: time < 24 hrs, dose 1 mg/kg, route iv; settings: in vivo

Chain of Mitogen-activated protein kinase 8 (P45983 whole entry): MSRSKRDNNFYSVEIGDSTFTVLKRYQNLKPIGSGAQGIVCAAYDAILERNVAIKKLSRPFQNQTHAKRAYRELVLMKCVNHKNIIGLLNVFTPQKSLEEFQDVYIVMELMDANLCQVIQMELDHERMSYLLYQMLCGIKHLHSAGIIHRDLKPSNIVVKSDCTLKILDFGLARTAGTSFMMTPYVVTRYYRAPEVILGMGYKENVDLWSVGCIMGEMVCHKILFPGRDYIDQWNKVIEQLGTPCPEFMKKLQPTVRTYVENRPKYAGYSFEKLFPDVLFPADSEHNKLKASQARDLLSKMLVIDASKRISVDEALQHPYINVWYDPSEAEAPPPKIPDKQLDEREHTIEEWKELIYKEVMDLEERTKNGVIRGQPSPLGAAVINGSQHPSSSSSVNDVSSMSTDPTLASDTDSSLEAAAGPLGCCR
Chain of Mitogen-activated protein kinase 10 (Rattus norvegicus) (P49187 whole entry): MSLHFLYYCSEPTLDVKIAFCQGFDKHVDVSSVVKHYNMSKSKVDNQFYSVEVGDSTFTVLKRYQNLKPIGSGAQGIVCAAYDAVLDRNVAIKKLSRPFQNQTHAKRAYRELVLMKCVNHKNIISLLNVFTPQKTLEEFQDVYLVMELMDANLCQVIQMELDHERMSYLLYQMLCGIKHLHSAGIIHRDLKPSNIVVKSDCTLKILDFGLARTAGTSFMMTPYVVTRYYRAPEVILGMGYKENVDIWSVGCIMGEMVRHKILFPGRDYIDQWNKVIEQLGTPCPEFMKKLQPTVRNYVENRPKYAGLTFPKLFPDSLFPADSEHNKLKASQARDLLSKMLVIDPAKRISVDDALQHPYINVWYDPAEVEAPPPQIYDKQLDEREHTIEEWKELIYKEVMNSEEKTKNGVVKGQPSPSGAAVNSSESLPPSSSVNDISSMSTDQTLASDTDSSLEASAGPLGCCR
Chain of Mitogen-activated protein kinase 9 (P45984 whole entry): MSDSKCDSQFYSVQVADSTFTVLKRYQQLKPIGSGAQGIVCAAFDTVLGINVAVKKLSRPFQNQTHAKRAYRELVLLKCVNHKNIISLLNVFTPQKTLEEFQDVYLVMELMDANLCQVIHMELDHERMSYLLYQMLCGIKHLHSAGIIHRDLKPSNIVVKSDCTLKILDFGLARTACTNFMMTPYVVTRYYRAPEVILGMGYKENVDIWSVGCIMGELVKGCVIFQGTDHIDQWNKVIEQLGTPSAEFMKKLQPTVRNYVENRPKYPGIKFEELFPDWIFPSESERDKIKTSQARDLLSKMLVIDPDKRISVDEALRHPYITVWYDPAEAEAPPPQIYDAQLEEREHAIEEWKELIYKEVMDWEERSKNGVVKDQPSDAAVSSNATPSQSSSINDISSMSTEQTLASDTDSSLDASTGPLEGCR
Chain of Mitogen-activated protein kinase 10 (P53779 whole entry): as the sequence (P49187 whole entry) above, with H27Q, S32Y, V33I, V34A counted along it

Row | AUC at 24 h [9] [µg·h/mL] | IC50 [11] [µM] | Cmax [17] [µg/mL] | IC50 [21] [µM] | SMILES | Activity (Neuron [12]) [%] | Activity (Neuron [20]) [%] | Papp [22] [nm/s] | other results
1 | – | 0.705 | 0.423 | 0.151 | O=C(C1CC1)N1CCC[C@H](Nc2nccc(-n3c(-c4ccc5ccccc5c4)nc4c(F)cc(O)cc43)n2)C1 | 35.2 | 59.5 | 229 | IC50 [10]: 0.01 µM; inhibition [23]: Active; inhibition (Neuron [24]): Active; inhibition (Neuron [25]): Active; inhibition [26]: Active; inhibition [27]: Active
2 | 0.345 | – | 0.277 | – | NC(=O)Oc1ccc2nc(-c3ccc4ccccc4c3)n(-c3ccnc(N[C@H]4CCCN(C(=O)C5CC5)C4)n3)c2c1 | – | – | – | –
3 | 0.392 | – | – | – | N#CCc1cnc(-c2ccc3ccccc3c2)n1-c1ccnc(N[C@H]2CCCN(C(=O)C3CC3)C2)n1 | – | 14.1 | – | Cmax [28]: 1.12 µg/mL; AUC at 24 h [29]: 0.614 µg·h/mL
4 | – | 0.301 | – | 0.125 | O=C(C1CC1)N1CCC[C@H](Nc2nccc(-n3c(-c4ccc5ccccc5c4)nc4ccc(O)cc43)n2)C1 | 21.8 | 41.2 | 351 | Cmax [28]: 1.51 µg/mL; AUC at 24 h [29]: 0.349 µg·h/mL

Continued, molecule first:

Row | SMILES | AUC at 24 h [9] [µg·h/mL] | IC50 [11] [µM] | Cmax [17] [µg/mL] | IC50 [21] [µM] | Activity (Neuron [12]) [%] | Activity (Neuron [20]) [%] | Papp [22] [nm/s] | other results
5 | CNC(=O)Oc1ccc2nc(-c3ccc4ccccc4c3)n(-c3ccnc(N[C@H]4CCCN(C(=O)C5CC5)C4)n3)c2c1 | 0.351 | 1.04 | 0.342 | 0.973 | 17.2 | 34.8 | 672 | Activity (Mus musculus [1]): 16.84%; Activity (Mus musculus [2]): 52.7%; Tmax [3]: 23.4 min; Time (Mus musculus [4]): 59.3 s; Activity (Mus musculus [5]): 21.12%; Activity (Mus musculus [6]): 12.57%; half-life [7]: 39 min; Papp A→B [8]: 49 nm/s; IC50 [10]: 0.053 µM; efflux ratio [13]: 2.31; Activity (Mus musculus [14]): 16.42%; Activity (Mus musculus [15]): 53.46%; AUC(0-t) at 24 h [16]: 0.351 µg·h/mL; Time (Mus musculus [18]): 61.6 s; Papp B→A [19]: 113 nm/s
6 | CC(=O)[C@H]1CC[C@H]2[C@@H]3CCC4=CC(=O)CC[C@]4(C)[C@H]3CC[C@]12C [PROGESTERONE] | – | – | – | – | – | – | 265 | –
7 | CCNC(=O)Oc1ccc2nc(-c3ccc4ccccc4c3)n(-c3ccnc(N[C@H]4CCCN(C(=O)C5CC5)C4)n3)c2c1 | 0.26 | – | 0.253 | – | – | – | – | –
8 | CN(C)C(=O)Oc1ccc2nc(-c3ccc4ccccc4c3)n(-c3ccnc(N[C@H]4CCCN(C(=O)C5CC5)C4)n3)c2c1 | 0.554 | – | 0.483 | – | – | – | – | –
